The values that follow come from article PMC9127186, “Molecular Basis Underlying Hepatobiliary and Renal Excretion of Phenolic Acids of Salvia miltiorrhiza Roots (Danshen)” (Frontiers in Pharmacology, 2022).

One data set addresses T1, rat Pept1 (Rattus norvegicus, UniProt P51574).
T1 sequence (P51574 1-710): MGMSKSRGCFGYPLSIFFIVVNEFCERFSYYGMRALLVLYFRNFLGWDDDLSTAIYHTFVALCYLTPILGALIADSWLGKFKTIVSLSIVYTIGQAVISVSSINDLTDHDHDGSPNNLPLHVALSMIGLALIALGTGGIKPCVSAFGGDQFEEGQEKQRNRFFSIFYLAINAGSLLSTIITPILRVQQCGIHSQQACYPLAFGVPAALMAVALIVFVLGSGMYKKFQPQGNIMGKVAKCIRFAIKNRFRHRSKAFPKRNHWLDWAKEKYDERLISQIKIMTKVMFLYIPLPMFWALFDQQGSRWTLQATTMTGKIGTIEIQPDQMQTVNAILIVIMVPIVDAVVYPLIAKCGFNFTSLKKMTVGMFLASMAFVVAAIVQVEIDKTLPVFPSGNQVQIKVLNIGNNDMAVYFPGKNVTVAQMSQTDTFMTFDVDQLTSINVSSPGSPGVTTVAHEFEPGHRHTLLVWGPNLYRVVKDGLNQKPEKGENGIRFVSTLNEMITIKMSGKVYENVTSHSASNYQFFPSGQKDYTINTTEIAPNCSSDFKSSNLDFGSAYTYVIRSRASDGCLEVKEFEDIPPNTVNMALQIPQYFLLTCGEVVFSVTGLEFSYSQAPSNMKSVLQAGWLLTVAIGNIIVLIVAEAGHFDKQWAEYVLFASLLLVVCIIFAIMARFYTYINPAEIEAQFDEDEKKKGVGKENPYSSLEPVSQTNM
Put plainly: Cellular transport assay, HEK-293 cells expressing rat Pept1. The conditions noted are these: Danshen phenolic acid at 100 μM final concentration, 10 min, incubation pH 6.0; rat Pept1-transfected vs mock cells.

The target in a further data set is T2, human NTCP (Homo sapiens, UniProt Q14973).
T2 sequence (Q14973 1-349): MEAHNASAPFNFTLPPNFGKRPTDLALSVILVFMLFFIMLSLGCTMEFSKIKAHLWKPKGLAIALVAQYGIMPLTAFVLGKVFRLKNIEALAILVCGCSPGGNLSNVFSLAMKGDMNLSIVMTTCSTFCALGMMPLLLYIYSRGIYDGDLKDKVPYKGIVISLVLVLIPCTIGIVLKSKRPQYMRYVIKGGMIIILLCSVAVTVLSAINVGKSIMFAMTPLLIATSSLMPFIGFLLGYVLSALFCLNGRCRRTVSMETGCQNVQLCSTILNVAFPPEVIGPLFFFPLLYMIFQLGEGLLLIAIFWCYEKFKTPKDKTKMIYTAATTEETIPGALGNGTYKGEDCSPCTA
Description: Cellular transport assay, HEK-293 cells expressing human NTCP. The note with it: Danshen phenolic acid at 100 μM final concentration, 10 min; human NTCP-transfected vs mock cells.

The target in a further data set is T3, human OCT2 (Homo sapiens, UniProt O15244).
T3 sequence (O15244 1-555): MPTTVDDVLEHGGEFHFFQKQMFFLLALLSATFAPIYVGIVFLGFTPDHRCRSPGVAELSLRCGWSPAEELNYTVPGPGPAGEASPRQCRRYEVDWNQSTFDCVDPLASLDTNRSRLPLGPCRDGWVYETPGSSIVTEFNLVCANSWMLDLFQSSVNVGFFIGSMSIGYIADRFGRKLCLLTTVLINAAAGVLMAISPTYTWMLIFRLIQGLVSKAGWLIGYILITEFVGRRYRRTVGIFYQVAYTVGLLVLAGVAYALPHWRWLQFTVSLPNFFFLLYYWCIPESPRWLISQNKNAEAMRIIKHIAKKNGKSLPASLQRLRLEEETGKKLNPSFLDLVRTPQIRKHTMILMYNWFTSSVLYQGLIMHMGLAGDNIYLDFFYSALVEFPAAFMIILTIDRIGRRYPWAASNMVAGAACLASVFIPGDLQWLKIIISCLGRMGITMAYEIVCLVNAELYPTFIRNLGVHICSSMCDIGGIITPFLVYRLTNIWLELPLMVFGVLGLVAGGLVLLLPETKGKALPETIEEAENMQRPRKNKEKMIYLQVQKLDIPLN
Put plainly: Cellular transport assay, HEK-293 cells expressing human OCT2. The conditions noted are these: Danshen phenolic acid at 100 μM final concentration, 10 min; human OCT2-transfected vs mock cells.

A further data set addresses T4, human PEPT1 (Homo sapiens, UniProt P46059).
T4 sequence (P46059 1-708): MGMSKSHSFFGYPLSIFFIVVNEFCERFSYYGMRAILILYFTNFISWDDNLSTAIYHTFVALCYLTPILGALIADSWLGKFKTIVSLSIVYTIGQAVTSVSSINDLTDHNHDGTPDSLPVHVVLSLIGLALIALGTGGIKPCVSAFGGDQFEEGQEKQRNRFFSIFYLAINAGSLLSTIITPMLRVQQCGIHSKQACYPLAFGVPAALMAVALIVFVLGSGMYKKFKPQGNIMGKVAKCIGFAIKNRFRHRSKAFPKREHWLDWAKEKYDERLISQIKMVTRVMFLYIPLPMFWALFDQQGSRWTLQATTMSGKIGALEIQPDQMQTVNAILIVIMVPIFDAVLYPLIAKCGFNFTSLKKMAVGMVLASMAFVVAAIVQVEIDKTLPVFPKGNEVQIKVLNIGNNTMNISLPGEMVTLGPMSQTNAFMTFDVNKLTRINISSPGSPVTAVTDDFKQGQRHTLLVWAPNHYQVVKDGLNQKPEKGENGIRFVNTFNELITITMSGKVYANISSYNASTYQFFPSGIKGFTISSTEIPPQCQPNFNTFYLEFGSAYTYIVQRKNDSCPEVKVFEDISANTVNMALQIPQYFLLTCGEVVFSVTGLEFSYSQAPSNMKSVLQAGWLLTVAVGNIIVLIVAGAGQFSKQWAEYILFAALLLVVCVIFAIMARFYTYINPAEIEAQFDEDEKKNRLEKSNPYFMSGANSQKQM
Put plainly: Cellular transport assay, HEK-293 cells expressing human PEPT1. The note with it: Danshen phenolic acid at 100 μM final concentration, 10 min, incubation pH 6.0; human transporter PEPE1 [sic], transfected vs mock cells.

With `O=C(/C=C/c1ccc(O)c2c1[C@H](C(=O)O)[C@@H](c1ccc(O)c(O)c1)O2)O[C@H](Cc1ccc(O)c(O)c1)C(=O)O` [Lithospermic acid, lithospermic acid], the “TransportTC/TransportMC ratio (net transport ratio)” value on rat Pept1 was 1.31 ± 0.32; on human NTCP it was 2.44 ± 0.13; on human OCT2, 0.89 ± 0.31; on human PEPT1 it was 1.86 ± 0.36.
On the same counts, the results for `O=C(O)c1ccc(O)c(O)c1` [Protocatechuic acid, protocatechuic acid] are 1.37 ± 0.36, 1.26 ± 0.15, 0.75 ± 0.35 and 0.93 ± 0.34.
On the same counts, the results for `O=C(O)Cc1c(/C=C/C(=O)O[C@H](Cc2ccc(O)c(O)c2)C(=O)O)ccc(O)c1O` [Salvianolic acid D, salvianolic acid D] are 1.43 ± 0.36, 2.09 ± 0.36, 0.85 ± 0.26 and 1.06 ± 0.20.
On to salvianolic acid B, for which the “TransportTC/TransportMC ratio (net transport ratio)” value on rat Pept1 is reported as 1.21 ± 0.45; at human NTCP, 2.88 ± 0.21; on human OCT2, 0.75 ± 0.23; on human PEPT1, 2.05 ± 0.22.
